Test results from patent publication US9545367B2, “Cosmetic use of N-heteroarylbisamide analogs and related compounds” (Avon Products, Inc., priority 2011, dated 2017).

Columns and labels:
Type in all cases: cell-based, human
explanted skin tissue = experiment: Skin explant assay, hematoxylin and eosin histology; conditions: skin explants, 0.025 weight percent, administered days 0, 1, 2, 5, 7; nine days in culture; vs vehicle control; FIG. 1B
Protocol: (§1) Samples of explanted skin tissue were obtained from an abdominal plasty of a person. Samples (33 samples in total) were maintained in tissue culture medium at 37° C. in a humid, 5%-CO2 atmosphere for the duration of the study.
(§2) The skin tissue explants were then distributed into appropriate controls or treated samples in triplicates. The controls received only a vehicle, and the treatment samples received 0.025 weight percent of Analog A disclosed above. The vehicle and Analog A were administered to the controls and treatment samples, respectively, on days 0, 1, 2, 5, and 7.
(§3) After nine days in culture the vehicle and Analog A treated samples were collected and processed for histology and immunostaining Initially, the samples were fixed in buffered formalin for 24 hours. […] Tissue samples were also stained for procollagen I using a Procollagen I rat monoclonal antibody with streptavidin alkaline phosphatase conjugate (Vectastain, Vector labs) and Vector® blue substrate detection system (Vector Laboratories LTD., Peterborough, UK), and hyaluronic acid using biotinylated affinity purified Hyaluronic Acid Binding Protein ((bovine nasal cartilage) Calbiochem, EMD Chemicals USA) and detected using the aforementioned detection system […]

Hyaluronic Acid = experiment: Skin explant assay, Hyaluronic Acid Binding Protein staining; conditions: skin explants, 0.025 weight percent, nine days in culture; FIGS. 2A and 2B
Protocol: as §1, §2, §3

Procollagen 1 = experiment: Skin explant assay, procollagen I immunostaining; conditions: skin explants, 0.025 weight percent, nine days in culture; FIGS. 3A and 3B
Protocol: as §1, §2, §3

- expression of Hyaluronic Acid in comparison to the vehicle control (Hyaluronic Acid): increased
SMILES: Cc1cccc(-n2nc(C(C)(C)C)cc2NC(=O)CCCC(=O)NC(C)C(C)C)c1 (stereo not shown) [Analog A]
- cell density throughout the basal epidermis (hematoxylin and eosin stain) (explanted skin tissue): maintained their cell density throughout the basal epidermis
- contact with the basal layer (hematoxylin and eosin stain) (explanted skin tissue): good contact with the basal layer
- expression of Procollagen 1 in comparison to the vehicle control (Procollagen 1): increased
